Test results as given in patent US20090215678A1, “Preventing Vertical Endoparasite Infections” (BAYER HEALTHCARE AG, priority 2004, published 2009).

Experiments:
[1] = tested on: Toxocara canis; assay: Prevention of vertical (prenatal) Toxocara canis infection in pups of experimentally infected beagle bitches treated during pregnancy; assay type: in vivo; conditions: for percentage efficacy, number of excreted eggs per gram of faeces: measured in pups; for percentage efficacy, number of intestinal stages in the intestine: pups euthanised on 35th day of life
Procedure: (§1) The investigations were carried out on eighteen beagle bitches which had been experimentally infected with Toxocara canis. Six of these animals served as the untreated control group. Two different treatment schemes were used. In treatment group 1 (T1), six bitches were treated daily, from the 42nd day of pregnancy onwards until the birth of the pups, with in each case 1 mg of emodepside/kg of body weight, given orally as a tablet formulation; the six bitches in treatment group 2 (T2) were treated in the same way except that the treatment was only given every third day instead of daily. The efficacy of the treatment was assessed by determining three target quantities in the pups: number of somatic T. canis larvae in samples of the liver, lung, kidney and gastrointestinal tract including content and musculature (euthanasia of the pups directly after birth), number of excreted eggs per gram of faeces and number of intestinal T. canis stages after washing out the intestine (euthanasia of the pups on the 35th day of life).

[2] = Tolerability in dams and pups in the beagle study; assay type: in vivo; conditions: 1 mg/kg orally, T1 and T2
Procedure: as §1
Incompatibility phenomena were not observed either in the dam or in the pups.

[3] = T2: 1 mg/kg orally, every third day from 42nd day of pregnancy until birth

With CC(C)C[C@H]1C(=O)O[C@H](Cc2ccc(N3CCOCC3)cc2)C(=O)N(C)[C@@H](CC(C)C)C(=O)O[C@H](C)C(=O)N(C)[C@@H](CC(C)C)C(=O)O[C@H](Cc2ccc(N3CCOCC3)cc2)C(=O)N(C)[C@@H](CC(C)C)C(=O)O[C@H](C)C(=O)N1C [emodepside] the “mean value of percentage efficacy obtained from the target quantities” value ([1]; T1 (daily treatment)) was 98.7%, the “percentage efficacy, number of excreted eggs per gram of faeces” value ([1]; T1: 1 mg emodepside/kg body weight orally as tablet, daily from 42nd day of pregnancy until birth) was 99.9% and the “percentage efficacy, number of somatic larvae in the digestive organs” value ([1]; T1: 1 mg/kg orally, daily from 42nd day of pregnancy until birth, pups euthanised directly after birth) was 96.4%. The “percentage efficacy, number of intestinal stages in the intestine” value ([1]; T1: 1 mg/kg orally, daily from 42nd day of pregnancy until birth) was 99.9%, the “mean value of percentage efficacy obtained from the target quantities” value ([1]; T2 (treatment every third day)) was 97.5% and the “percentage efficacy, number of excreted eggs per gram of faeces” value [1, 3] was 99.9%. For the same molecule, the “percentage efficacy, number of somatic larvae” value ([1]; T2: 1 mg/kg orally, every third day from 42nd day of pregnancy until birth, pups euthanised directly after birth) was 93.8%, the “percentage efficacy, number of intestinal stages in the intestine” value [1, 3] was 98.7% and the “prenatal infection with T. canis in the pups” value ([1]; both treatment schemes (T1 and T2)) was “marked reduction”. The “incompatibility phenomena in the dam or in the pups” value [2] was “not observed”.
